Test results: US6476030B1, “Pyrazolo-triazine derivatives as ligands for GABA receptors” (Merck Sharp & Dohme Ltd., priority 1998, dated 2002)

Row | melting point [°C] | SMILES
1 | 163 | Cn1ncnc1COc1nn2c(-c3c(F)cccc3F)nncc2c1-c1ccccc1F [Example 49, 7-(2,6-Difluorophenyl)-3-(2-fluorophenyl)-2-(2-methyl-2H-[1,2,4]triazol-3-ylmethoxy)pyrazolo[1,5-d][1,2,4]triazine]
2 | 169 to 170 | Cn1ncnc1COc1nn2c(-c3cccc(F)c3)nncc2c1-c1ccccc1F [Example 51, 3-(2-Fluorophenyl)-7-(3-fluorophenyl)-2-(2-methyl-2H-[1,2,4]triazol-3-ylmethoxy)pyrazolo[1,5-d][1,2,4]triazine]
3 | 164 to 166 | Cn1ncnc1COc1nn2c(-c3ccc(F)cc3F)nncc2c1-c1ccccc1F [Example 52, 7-(2,4-Difluorophenyl)-3-(2-fluorophenyl)-2-(2-methyl-2H-[1,2,4]triazol-3-ylmethoxy)pyrazolo[1,5-d][1,2,4]triazine]
4 | 186 to 187 | Cn1ncnc1COc1nn2c(-c3ccccc3F)nncc2c1-c1ccccn1 [Example 53, 7-(2-Fluorophenyl)-2-(2-methyl-2H-[1,2,4]triazol-3-ylmethoxy)-3-(pyridin-2-yl)pyrazolo[1,5-d][1,2,4]triazine]
5 | 196 to 197 | Cn1ncnc1COc1nn2c(-c3ccccc3F)nncc2c1-c1cccs1 [Example 54, 7-(2-Fluorophenyl)-2-(2-methyl-2H-[1,2,4]triazol-3-ylmethoxy)-3-(thien-2-yl)pyrazolo[1,5-d][1,2,4]triazine]
6 | 188 to 190 | Cn1ncnc1COc1nn2c(-c3ccccc3F)nncc2c1-c1ccco1 [Example 55, 7-(2-Fluorophenyl)-3-(furan-2-yl)-2-(2-methyl-2H-[1,2,4]triazol-3-ylmethoxy)pyrazolo[1,5-d][1,2,4]triazine]
7 | 118 | Cn1ncnc1COc1nn2c(-c3ccc(F)cc3F)nncc2c1C(C)(C)C [Example 56, 7-(2,4-Difluorophenyl)-3-(1,1-dimethylethyl)-2-(2-methyl-2H-[1,2,4]triazol-3-ylmethoxy)pyrazolo[1,5-d][1,2,4]triazine]
8 | 145 | CCn1ncnc1COc1nn2c(-c3ccc(F)cc3F)nncc2c1C(C)(C)C [Example 57, 7-(2,4-Difluorophenyl)-3-(1,1-dimethylethyl)-2-(2-ethyl-2H-[1,2,4]triazol-3-ylmethoxy)pyrazolo[1,5-d][1,2,4]triazine]
9 | 164 | CCn1ncnc1COc1nn2c(-c3ccccc3F)nncc2c1-c1ccccc1F [Example 58, 2-(2-Ethyl-2H-[1,2,4]triazol-3-ylmethoxy)-3,7-bis(2-fluorophenyl)-pyrazolo[1,5-d][1,2,4]triazine]
10 | 184 | Cn1cnc(COc2nn3c(-c4ccccc4F)nncc3c2-c2ccccc2F)n1 [Example 59, 3,7-bis(2-Fluorophenyl)-2-(1-methyl-1H-[1,2,4]triazol-3-ylmethoxy)pyrazolo[1,5-d][1,2,4]triazine]
11 | 188 | Cn1nncc1COc1nn2c(-c3ccccc3F)nncc2c1-c1ccccc1F [Example 60, 3,7-bis(2-Fluorophenyl)-2-(3-methyl-3H-[1,2,3]triazol-4-ylmethoxy)pyrazolo[1,5-d][1,2,4]triazine]
12 | 175 | Cn1cc(COc2nn3c(-c4ccccc4F)nncc3c2-c2ccccc2F)nn1 [Example 61, 3,7-bis(2-Fluorophenyl)-2-(1-methyl-1H-[1,2,3]triazol-4-ylmethoxy)pyrazolo[1,5-d][1,2,4]triazine]
13 | 197 | Cc1cccc(COc2nn3c(-c4ccccc4F)nncc3c2-c2ccccc2F)n1 [Example 62, 3,7-bis(2-Fluorophenyl)-2-(6-methylpyridin-2-ylmethoxy)pyrazolo[1,5-d][1,2,4]triazine]
14 | 146 | Fc1ccccc1-c1c(OCc2cccnc2)nn2c(-c3ccccc3F)nncc12 [Example 63, 3,7-bis(2-Fluorophenyl)-2-(pyridin-3-ylmethoxy)pyrazolo[1,5-d][1,2,4]triazine]
15 | 143 | Fc1ccccc1-c1c(OCc2ccncc2)nn2c(-c3ccccc3F)nncc12 [Example 64, 3,7-bis(2-Fluorophenyl)-2-(pyridin-4-ylmethoxy)pyrazolo[1,5-d][1,2,4]triazine]
16 | 66 | Fc1ccccc1-c1c(OCc2ncccc2OC2CCC2)nn2c(-c3ccccc3F)nncc12 [Example 65, 2-(3-Cyclobutyloxypyridin-2-ylmethoxy)-3,7-bis(2-fluorophenyl)-pyrazolo[1,5-d][1,2,4]triazine]
17 | 143 | COc1cccnc1COc1nn2c(-c3ccccc3F)nncc2c1-c1ccccc1F [Example 67, 3,7-bis(2-Fluorophenyl)-2-(3-methoxypyridin-2-ylmethoxy)pyrazolo[1,5-d][1,2,4]triazine]
18 | 77 | CCOc1cccnc1COc1nn2c(-c3ccccc3F)nncc2c1-c1ccccc1F [Example 68, 2-(3-Ethoxypyridin-2-ylmethoxy)-3,7-bis(2-fluorophenyl)pyrazolo[1,5-d][1,2,4]triazine]
19 | 69 | Cc1cccnc1COc1nn2c(-c3ccccc3F)nncc2c1-c1ccccc1F [Example 69, 3,7-bis(2-Fluorophenyl)-2-(3-methylpyridin-2-ylmethoxy)pyrazolo[1,5-d][1,2,4]triazine]

Row | melting point [°C] | SMILES
20 | 176 | Cc1csc(COc2nn3c(-c4ccccc4F)nncc3c2-c2ccccc2F)n1 [Example 71, 3,7-bis(2-Fluorophenyl)-2-(4-methylthiazol-2-ylmethoxy)pyrazolo[1,5-d][1,2,4]triazine]
21 | 154 | Cc1cnc(COc2nn3c(-c4ccccc4F)nncc3c2-c2ccccc2F)s1 [Example 72, 3,7-bis(2-Fluorophenyl)-2-(5-methylthiazol-2-ylmethoxy)pyrazolo[1,5-d][1,2,4]triazine]
22 | 212 | Fc1ccccc1-c1c(OCc2cscn2)nn2c(-c3ccccc3F)nncc12 [Example 73, 3,7-bis(2-Fluorophenyl)-2-(thiazol-4-ylmethoxy)pyrazolo[1,5-d][1,2,4]triazine]
23 | 179 | CC(C)n1ncnc1COc1nn2c(-c3ccccc3F)nncc2c1-c1ccccc1F [Example 74, 3,7-bis(2-Fluorophenyl)-2-(2-isopropyl-2H-[1,2,4]triazol-3-ylmethoxy)-pyrazolo[1,5-d][1,2,4]triazine]
24 | 210 | Fc1ccccc1-c1c(OCc2cccnn2)nn2c(-c3ccccc3F)nncc12 [Example 76, 3,7-bis(2-Fluorophenyl)-2-(pyridazin-3-ylmethoxy)pyrazolo[1,5-d][1,2,4]triazine]
25 | 189 | Fc1ccccc1-c1c(OCc2ccncn2)nn2c(-c3ccccc3F)nncc12 [Example 78, 3,7-bis(2-Fluorophenyl)-2-(pyrimidin-4-ylmethoxy)pyrazolo[1,5-d][1,2,4]triazine]
26 | 209 | Fc1ccccc1-c1c(OCc2cnc3ccccc3n2)nn2c(-c3ccccc3F)nncc12 [Example 79, 3,7-bis(2-Fluorophenyl)-2-(quinoxalin-2-ylmethoxy)pyrazolo[1,5-d][1,2,4]triazine]
27 | 148 | Cn1ncnc1COc1nn2c(-c3ccoc3)nncc2c1-c1ccccc1F [Example 80, 3-(2-Fluorophenyl)-7-(furan-3-yl)-2-(2-methyl-2H-[1,2,4]triazol-3-ylmethoxy)pyrazolo[1,5-d][1,2,4]triazine]
28 | 218 to 220 | Cn1c(COc2nn3c(-c4ccccc4F)nncc3c2-c2ccccc2F)nc2ccccc21 [Example 81, 3,7-bis(2-Fluorophenyl)-2-(1-methyl-1H-benzimidazol-2-ylmethoxy)pyrazolo[1,5-d][1,2,4]triazine]
29 | 208 to 209 | Fc1ccccc1-c1c(OCc2nc3ccccn3n2)nn2c(-c3ccccc3F)nncc12 [Example 82, 3,7-bis(2-Fluorophenyl)-2-([1,2,4]triazolo[1,5-a]pyridin-2-ylmethoxy)pyrazolo[1,5-d][1,2,4]triazine]
30 | 150 to 152 | Fc1ccccc1-c1c(OCc2nc3n(n2)CCCC3)nn2c(-c3ccccc3F)nncc12 [Example 83, 3,7-bis(2-Fluorophenyl)-2-(5,6,7,8-tetrahydro[1,2,4]triazolo[1,5-a]pyridin-2-ylmethoxy)pyrazolo[1,5-d][1,2,4]triazine]
31 | 179 to 180 | Fc1ccccc1-c1c(OCc2ncnn2CC(F)F)nn2c(-c3ccccc3F)nncc12 [Example 85, 2-[2-(2,2-Difluoroethyl)-2H-[1,2,4]triazol-3-ylmethoxy]-3,7-bis(2-fluorophenyl)pyrazolo[1,5-d][1,2,4]triazine]
32 | 172 to 173 | FCCn1ncnc1COc1nn2c(-c3ccccc3F)nncc2c1-c1ccccc1F [Example 86, 2-[2-(2-Fluoroethyl)-2H-[1,2,4]triazol-3-ylmethoxy]-3,7-bis(2-fluorophenyl)-pyrazolo[1,5-d][1,2,4]triazine]
33 | 155 to 157 | Cn1ncnc1COc1nn2c(-c3ccccc3Cl)nncc2c1-c1ccccc1F [Example 88, 7-(2-Chlorophenyl)-3-(2-fluorophenyl)-2-(2-methyl-2H-[1,2,4]triazol-3-ylmethoxy)pyrazolo[1,5-d][1,2,4]triazine]
34 | 97 to 99 | Cn1ncnc1COc1nn2c(C3CC3)nncc2c1-c1ccccc1F [Example 89, 7-Cyclopropyl-3-(2-fluorophenyl)-2-(2-methyl-2H-[1,2,4]triazol-3-ylmethoxy)pyrazolo[1,5-d][1,2,4]triazine]
35 | 183 | Cc1cc(COc2nn3c(-c4ccccc4F)nncc3c2-c2ccccc2F)nn1C [Example 90, 3,7-bis(2-Fluorophenyl)-2-(1,5-dimethyl-1H-pyrazol-3-ylmethoxy)-pyrazolo[1,5-d][1,2,4]triazine]
36 | 182 to 183 | CCn1ncnc1COc1nn2c(-c3ccccc3F)nncc2c1-c1ccco1 [Example 91, 2-(2-Ethyl-2H-[1,2,4]triazol-3-ylmethoxy)-7-(2-fluorophenyl)-3-(furan-2-yl)pyrazolo[1,5-d][1,2,4]triazine]
37 | 190 to 192 | CCn1ncnc1COc1nn2c(-c3ccccc3F)nncc2c1-c1cccs1 [Example 92, 2-(2-Ethyl-2H-[1,2,4]triazol-3-ylmethoxy)-7-(2-fluorophenyl)-3-(thien-2-yl)pyrazolo[1,5-d][1,2,4]triazine]
